Test results taken from patent publication US11944605B2, “Rapamycin analogs and uses thereof” (Janssen Pharmaceutica NV, priority 2018, dated 2024).
“Also recorded” adds a separate entry of the source.

Legend:
Type in all cases: cell-based
mTORC1 over mTORC2 = assay: mTORC1 selectivity over mTORC2 at 24 hrs (Western blot based pS6K1 and pAKT assay); settings: 24 hrs
Description: (§1) Western Blot Based pS6K1 and pAKT Assay at 24 and 48 Hour Timepoints
(§2) 1. Seed six well plate with 500,000 PC3 cells per well and incubate for 20˜24 hour.
(§3) 2. Add compounds into the cell plate. Incubate for 24 to 48 hours.
(§4) 4. Plate is placed on ice and the media is removed via aspiration. The wells are washed with 1 mL of 1× PBS and then fully aspirated.
(§5) 5. 110 μL of 1% Triton Lysis Buffer is added and each well is scraped vigorously.
(§6) 6. Cell homogenates are transferred to 1.5 mL eppendorf tubes on ice and spun down at 4° C. for 10 minutes at 10,000 rpm.
(§7) 9. The membranes were washed 3× with TBS-T with a 5 minute incubation between each wash then incubated with secondary antibody (LiCor IRDye 800 Donkey Anti Rabbit) for at least 30 minutes.
(§8) 10. The membranes were washed 3× with TBS-T with a 5 minute incubation between each wash.
(§9) 11. The gels were then incubated for 5 minutes with PBS at room temperature then imaged using a Li-Cor.
“N/A” stands for “not assayed.”

[1] = system: mTORC1 pathway (pS6K1 T389) in PC3 cells; assay: Western blot, mTORC1 pathway (pS6K1) in PC3 cells; settings: PC3 cells, 24 hours
Description: as §1, §2, §3, §4, §5, §6, §7, §8, §9
(§10) The methods employed were substantially similar to those described above. Compounds were evaluated in PC3 cells, Jurkat cells, wild-type mouse embryotic fibroblast (MEF) cells, tuberous sclerosis 2 (TSC2) negative (TSC −/−) MEF cells, and tuberous sclerosis 2 (TSC2) positive (TSC +/+) MEF cells. Cells were incubated with compounds of the present invention for various time periods (e.g., 5 minutes, 15 minutes, 30 minutes, 90 minutes, 24 hours, or 48 hours), and evaluated according to known methodologies, such as those herein described.

[2] = system: mTORC2 pathway (Akt phosphorylation) in PC3 cells; assay: Western blot, mTORC2 pathway (pAkt) in PC3 cells; settings: 24 hours
Description: as §1, §2, §3, §4, §5, §6, §7, §8, §9, §10

[3] = system: pS6K1 (p-p70 S6 Kinase (Thr389)) in MCF-7 cells; assay: AlphaLISA Ultra pS6K1 Assay; settings: Homo sapiens, 1.5 h; MCF7 cells, 90 min
In short: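 MCF-7 cells were seeded for 20–24 h, refed with fresh medium for 2 h, then treated with compound for 90 min at 0.5% final DMSO. Lysates were frozen at −80 °C, thawed and assayed by AlphaLISA with acceptor then donor beads, 2 h each.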

[4] = system: pAKT (p-Akt 1/2/3 (Ser473)) in MCF-7 cells; assay: AlphaLISA Ultra pAKT Assay; settings: Homo sapiens, 1.5 h; MCF7 cells, 90 min
Description: AlphaLISA Ultra pAKT Assay
1. MCF-7 cells in Corning 3701 plate and incubate for 20˜24 hour.
16,000˜20,000 cells will be seeded in 36 μL medium per well.
2. Change the culture medium with fresh medium and incubate for another 90 minutes.
3. […]
4. Aspirate […] by HAMILTON, 10 μL rest per well.
5. Add 10 μL 2× lysis buffer using HAMILTON; total volume in wells is 20 μL. Allow cells to shake for 30 min. Cover plate by plastic foil and store plate at −80° C. up to analysis.
6. Thaw cell lysate at RT and transfer 10 ul lysate to assay plate (Optiplate-384).
7. Add 5 μL acceptor beads into assay plate and incubation for 2 hours
8. Add 5 μL donor beads and incubation for 2 hours
9. Count the plate by EnSpire Multimode Plate Reader

Compound	mTORC1 selective @ 24 hrs (mTORC1 over mTORC2)	inhibition of the mTORC1 pathway [1]	inhibition of mTORC2 (Akt phosphorylation) [2]	IC50 [3] [nM]	IC50 [4] [nM]
CO[C@@H]1C[C@H](C[C@@H](C)[C@@H]2CC(=O)[C@H](C)/C=C(\C)[C@@H](O)[C@@H](OC)C(=O)[C@H](C)C[C@H](C)/C=C/C=C/C=C(\C)[C@@H](OCC(CO)CO)C[C@@H]3CC[C@@H](C)[C@@](O)(O3)C(=O)C(=O)N3CCCC[C@H]3C(=O)O2)CC[C@H]1O [I-5]	YES	strong inhibition	do not inhibit	–	–
CO[C@@H]1C[C@H](C[C@@H](C)[C@@H]2CC(=O)[C@H](C)/C=C(\C)[C@@H](O)[C@@H](OC)C(=O)[C@H](C)C[C@H](C)/C=C/C=C/C=C(\C)C(OCC3COCCOCCOCCO3)C[C@@H]3CC[C@@H](C)[C@@](O)(O3)C(=O)C(=O)N3CCCC[C@H]3C(=O)O2)CC[C@H]1O (some centres unmarked) [I-10]	YES	–	–	< 0.1	≥ 100
CO[C@@H]1C[C@H](C[C@@H](C)[C@@H]2CC(=O)[C@H](C)/C=C(\C)[C@@H](O)[C@@H](OC)C(=O)[C@H](C)C[C@H](C)/C=C/C=C/C=C(\C)[C@@H](OCCCC(=O)N(C)C)C[C@@H]3CC[C@@H](C)[C@@](O)(O3)C(=O)C(=O)N3CCCC[C@H]3C(=O)O2)CC[C@H]1OCCO [I-62, 4-[[(23E, 25E,27E,28E,35R,36S,37R,38R,40S,42S,44S,45S,46R,47R,57R)-46,57-dihydroxy-45-[(1R)-2-[(1S, 3R,4R)-4-(2-hydroxyethoxy)-3-methoxy-cyclohexyl]-1-methyl-ethyl]-47-methoxy-35, 36,37,38,48,49-hexamethyl-50,51,52,53,54-pentaoxo-69,70-dioxa-58-azatricyclohexatriaconta-23, 25,27(48),28(49)-tetraen-44-yl]oxy]-N,N-dimethyl-butanamide]	YES	strong inhibition	do not inhibit	1 to 10	–
CO[C@@H]1CC(C[C@@H](C)C2CC(=O)[C@H](C)/C=C(\C)[C@@H](O)[C@@H](OC)C(=O)[C@H](C)C[C@H](C)/C=C/C=C/C=C(\C)[C@@H](OCCOCC(F)(F)F)C[C@@H]3CC[C@@H](C)[C@@](O)(O3)C(=O)C(=O)N3CCCC[C@H]3C(=O)O2)CC[C@H]1OCCO (stereo partly drawn) [I-71, (21E,23E,25E,26E,33R,34S,35R,36R,38S,40S,42S,43S,44R,45R,54R)-44, 54-dihydroxy-43-[(1R)-2-[(1S,3R,4R)-4-(2-hydroxyethoxy)-3-methoxy-cyclohexyl]-1-methyl-ethyl]-45-methoxy-33, 34,35,36,46,47-hexamethyl-42-[2-(2,2,2-trifluoroethoxy)ethoxy]-65,66-dioxa-56-azatricyclohexatriaconta-21,23,25(46),26(47)-tetraene-48, 49,50,51,52-pentone]	YES	strong inhibition	do not inhibit	0.1 to 1	–
CO[C@@H]1C[C@H](C[C@@H](C)[C@@H]2CC(=O)[C@H](C)/C=C(\C)[C@@H](O)[C@@H](OC)C(=O)[C@H](C)C[C@H](C)/C=C/C=C/C=C(\C)C(OCCOCCOCCOCCOCCOCCOCCOCCOCCOCCOCCO)C[C@@H]3CC[C@@H](C)[C@@](O)(O3)C(=O)C(=O)N3CCCC[C@H]3C(=O)O2)CC[C@H]1O (stereo partly drawn) [I-96, (21E,23E,25E,26E,50R,51S,52R,53R,55S,57S,60S,61R,62R,71R)-61, 71-dihydroxy-59-[2-[2-[2-[2-[2-[2-[2-[2-[2-[2-(2-hydroxyethoxy)ethoxy]ethoxy]ethoxy]ethoxy]ethoxy]ethoxy]ethoxy]ethoxy]ethoxy]ethoxy]-60-[(1R)-2-[(1S,3R,4R)-4-hydroxy-3-methoxy-cyclohexyl]-1-methyl-ethyl]-62-methoxy-50, 51,52,53,63,64-hexamethyl-82,83-dioxa-72-azatricyclohexatriaconta-21, 23,25(63),26(64)-tetraene-65,66,67,68,69-pentone]	YES	strong inhibition	do not inhibit	0.1 to 1	–
CO[C@@H]1C[C@H](C[C@@H](C)[C@@H]2CC(=O)[C@H](C)/C=C(\C)[C@@H](O)[C@@H](OC)C(=O)[C@H](C)C[C@H](C)/C=C/C=C/C=C(\C)C(OCCOCCOCCOCCOCCOCCOCCO)C[C@@H]3CC[C@@H](C)[C@@](O)(O3)C(=O)C(=O)N3CCCC[C@H]3C(=O)O2)CC[C@H]1OCCO (stereo partly drawn) [I-99, (21E,23E,25E,26E,44R,45S,46R,47R,49S,51S,54S,55R,56R,65R)-55, 65-dihydroxy-53-[2-[2-[2-[2-[2-[2-(2-hydroxyethoxy)ethoxy]ethoxy]ethoxy]ethoxy]ethoxy]ethoxy]-54-[(1R)-2-[(1S, 3R,4R)-4-(2-hydroxyethoxy)-3-methoxy-cyclohexyl]-1-methyl-ethyl]-56-methoxy-44, 45,46,47,57,58-hexamethyl-76,77-dioxa-66-azatricyclohexatriaconta-21, 23,25(57),26(58)-tetraene-59,60,61,62,63-pentone]	YES	appreciable concentration dependent inhibition; also recorded: moderate concentration dependent inhibition	do not inhibit	0.1 to 1	–
CO[C@@H]1C[C@H](C[C@@H](C)[C@@H]2CC(=O)[C@H](C)/C=C(\C)[C@@H](O)[C@@H](OC)C(=O)[C@H](C)C[C@H](C)/C=C/C=C/C=C(\C)C(OCC(COCCC#N)(COCCC#N)COCCC#N)C[C@@H]3CC[C@@H](C)[C@@](O)(O3)C(=O)C(=O)N3CCCC[C@H]3C(=O)O2)CC[C@H]1O (stereo partly drawn) [I-101, 3-[2,2-bis(2-cyanoethoxymethyl)-3-[[(21E, 23E,25E,26E,41R,42S,43R,44R,46S,48S,51S,52R,53R,62R)-52,62-dihydroxy-51-[(1R)-2-[(1S, 3R,4R)-4-hydroxy-3-methoxy-cyclohexyl]-1-methyl-ethyl]-53-methoxy-41, 42,43,44,54,55-hexamethyl-56,57,58,59,60-pentaoxo-76,77-dioxa-67-azatricyclohexatriaconta-21, 23,25(54),26(55)-tetraen-50-yl]oxy]propoxy]propanenitrile]	YES	strong inhibition; also recorded: appreciable concentration dependent inhibition; also recorded: moderate concentration dependent inhibition	do not inhibit	0.1 to 1	–
COCCOCCO[C@H]1C[C@@H]2CC[C@@H](C)[C@@](O)(O2)C(=O)C(=O)N2CCCC[C@H]2C(=O)O[C@H]([C@H](C)C[C@@H]2CC[C@@H](O)[C@H](OC)C2)CC(=O)[C@H](C)/C=C(\C)[C@@H](O)[C@@H](OC)C(=O)[C@H](C)C[C@H](C)/C=C/C=C/C=C/1C [I-120, (22E,24E,26E,27E,33R,34S,35R,36R,38S,40S,43S,44R,45R,54R)-44, 54-dihydroxy-43-[(1R)-2-[(1S,3R,4R)-4-hydroxy-3-methoxy-cyclohexyl]-I-methyl-ethyl]-45-methoxy-42-[S-2-(2-methoxyethoxy)ethoxy]-33,34,35,36,46,47-hexamethyl-64,65-dioxa-55-azatricyclohexatriaconta-22, 24,26(46),27(47)-tetraene-48,49,50,51,52-pentone]	YES	–	–	< 0.1	–
CO[C@H]1C[C@@H]2CC[C@@H](C)[C@@](O)(O2)C(=O)C(=O)N2CCCC[C@H]2C(=O)O[C@H]([C@H](C)C[C@@H]2CC[C@@H](OP(C)(C)=O)[C@H](OC)C2)CC(=O)[C@H](C)/C=C(\C)[C@@H](O)[C@@H](OC)C(=O)[C@H](C)C[C@H](C)/C=C/C=C/C=C/1C [ridaforolimus, reference compound]	–	strong inhibition	dose dependent inhibition	–	–
CO[C@H]1C[C@@H]2CC[C@@H](C)[C@@](O)(O2)C(=O)C(=O)N2CCCC[C@H]2C(=O)O[C@H]([C@H](C)C[C@@H]2CC[C@@H](OC(=O)C(C)(CO)CO)[C@H](OC)C2)CC(=O)[C@H](C)/C=C(\C)[C@@H](O)[C@@H](OC)C(=O)[C@H](C)C[C@H](C)/C=C/C=C/C=C/1C [temsirolimus, reference compound]	–	strong inhibition	dose dependent inhibition	–	–
